This note sets out measurements from PMC4667779 (Bioorganic & medicinal chemistry, 2014).

In this assay the target is Pantothenate synthetase (PanC) from Mtb (Mycobacterium tuberculosis, UniProt P9WIL5). The assay is classed as biochemical.

Like-named read-outs stand apart in the source and are kept apart here.

Sequence of Pantothenate synthetase (PanC) from Mtb (P9WIL5 whole entry, looked up): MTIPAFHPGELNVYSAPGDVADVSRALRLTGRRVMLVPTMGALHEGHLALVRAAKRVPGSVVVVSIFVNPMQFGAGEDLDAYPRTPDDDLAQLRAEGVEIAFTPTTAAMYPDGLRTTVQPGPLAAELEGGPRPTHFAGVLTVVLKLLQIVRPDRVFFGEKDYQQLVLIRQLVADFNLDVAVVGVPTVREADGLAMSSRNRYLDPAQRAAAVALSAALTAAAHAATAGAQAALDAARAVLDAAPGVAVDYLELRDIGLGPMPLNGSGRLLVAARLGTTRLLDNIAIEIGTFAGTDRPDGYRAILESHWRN

On to `CC(C)(C)[C@@H](O)C(=O)NS(=O)(=O)OC[C@H]1O[C@@H](n2cnc3c(N)ncnc32)[C@H](O)[C@@H]1O` [1a, 5′-O-[N-((R)-2-Hydroxy-3,3-dimethylbutanoyl)sulfamoyl]adenosine], for which the “modality of inhibition with respect to pantoic acid” value (double-reciprocal plots, fixed ATP and saturating β-alanine) is given as “competitive inhibitor towards pantoic acid”. As for `CC(C)(C)[C@@H](O)C(=O)NS(=O)(=O)OC[C@H]1O[C@@H](n2cnc3c(N)ncnc32)[C@@H](O)[C@@H]1O` [compound 2, 5′-O-[N-((R)-2-Hydroxy-3,3-dimethylbutanoyl)sulfamoyl]vidarabine], the “fold loss in affinity relative to 1a” value (ratio of Ki values) is 4–6 fold. As to `CC(C)(C)[C@@H](O)C(=O)NS(=O)(=O)OC[C@H]1O[C@@H](n2cnc3c(N)ncnc32)[C@H](F)[C@@H]1O` [compound 3, 2′-Deoxy-2′-fluoro-5′-O-[N-((R)-2-Hydroxy-3,3-dimethylbutanoyl)sulfamoyl] adenosine], the “fold loss in affinity relative to 1a” value is 2–3 fold.

In the case of `CC(C)(C)[C@@H](O)C(=O)NS(=O)(=O)OC[C@H]1C[C@@H](n2cnc3c(N)ncnc32)[C@H](O)[C@@H]1O` [compound 4, 5′-O-[N-((R)-2-Hydroxy-3,3-dimethylbutanoyl)sulfamoyl]aristeromycin], under “ratio of Ki values”, the “fold loss in affinity relative to 1a” value is 2–3 fold.

Consider `CC(C)(CO)[C@@H](O)CNS(=O)(=O)NC[C@H]1O[C@@H](n2cnc3c(N)ncnc32)[C@H](O)[C@@H]1O` [compound 5, 5′-Amino-5′-deoxy-5′-N-[N-((R)-2,2-dimethylbutane-1,3-diol-4-yl)sulfamoyl] adenosine], for which the “fold loss in affinity relative to 1a” value (ratio of Ki values) is listed as “approximately 13 fold”.
